# Patent publication US8865704B2, “Wnt pathway antagonists” (Siena Biotech S.p.A., priority 2009, dated 2014)
# Test system: Wnt/β-catenin pathway
# Experiment: Wnt reporter assay (TCF-Luciferase, Firefly) in DBTRG-05MG cells
# Type: cell-based
# Details: Homo sapiens, 24 hours after compound addition
# Procedure: TCF-Luciferase: Three copies of a 4×TCF responsive elements were cloned into the pcDNA3.1/Zeo(+) vector (Invitrogen) after deletion of the constitutive CMV promoter and the insertion of the Firefly Luciferase from Promega (phFL-TK) to measure the activity of the Wnt/β-catenin pathway. The resulting plasmid was sequenced for quality control.
# Cells were grown in 20 μg/ml Zeocin and 20 μg/ml Zeocin plus 30 μg/ml Hygromicin respectively. The cells were plated at a density of 6500 cells/well in poly-D-lysine pre-treated 96 well-plates.
# IC50 determination: 36 hours after plating cells were incubated with 8-points (60 μM-40 μM-20 μM-10 μM-5 μM-1.66 μM-0.55 μM-0.185 μM) dilutions compound (0.6% DMSO (v/v)). Each compound was tested in triplicate in single plate. Luciferase detection was done with Dual-Luciferase Reporter Assay System (Promega). 24 hours after compound addition, media was removed and 30 μl of 1× lysis buffer was added to each well for 30 minutes. To each well 45 μl of Dual-Glo Luciferase reagent (Promega) were added and after 1 second delay Luciferase was detected for 1 second using Mithras LB940 instrument. After Firefly luciferase quantification 45 μl of Dual Stop & Glo reagent (Promega) were added to each well and Firefly Renilla was detected using the same parameters described before.
# Data were expressed as % of control for Firefly and Renilla luciferase independently; values were calculated using XLFit version 4.2, with a four parameters sigmoid function (XLFit model 205).
row,Structure (SMILES),IC50 [µM]
1,COCC(=O)N1CCN(C(=O)[C@H]2CC[C@H](Cn3c(=O)[nH]c4ccc(OC)cc4c3=O)CC2)[C@@H](C)C1 [Example 133],0.3 to 30
2,COc1ccc2c(c1)c(=O)n(C[C@H]1CC[C@H](C(=O)N3CCN(C(=O)COC(C)C)CC3)CC1)c(=O)n2C [Example 141],0.3 to 30
3,CC(C)(F)C(=O)N1CCN(C(=O)[C@H]2CC[C@H](Cn3c(=O)[nH]c4ccccc4c3=O)CC2)CC1 [Example 107],0.3 to 30
4,COc1ccc2[nH]c(=O)n(C[C@H]3CC[C@H](C(=O)Nc4ccncc4)CC3)c(=O)c2c1 [Example 113],0.3 to 30
5,O=C(C1CC1)N1CCN(C(=O)[C@H]2CC[C@H](Cn3c(=O)[nH]c4cc(C(F)(F)F)ccc43)CC2)CC1 [Example 112],0.3 to 30
6,CC(=O)N1CCN(C(=O)[C@H]2CC[C@H](Cn3c(=O)n(C)c4ccc(C)nc43)CC2)CC1 [Example 207],0.3 to 30
7,COCC(=O)N1CCN(C(=O)[C@H]2CC[C@H](Cn3c(=O)[nH]c4ccccc4c3=O)CC2)CC1 [Example 31],0.3 to 30
8,COc1ccc2c(c1)n(C[C@H]1CC[C@H](C(=O)N3CCN(C(=O)c4cncn4C)CC3)CC1)c(=O)n2C [Example 185],0.3 to 30
9,"O=C1CN(C[C@H]2CC[C@H](C(=O)N3CCN(c4ccccn4)CC3)CC2)C(=O)c2ccccc2N1 [Example 13, 4-[trans-4-(4-pyridin-2-yl-piperazine-1-carbonyl)-cyclohexylmethyl]-3,4-dihydro-1H-benzo[e][1,4]diazepine-2,5-dione]",0.3 to 30
10,CC(C)(C)NC(=O)N1CCN(C(=O)[C@H]2CC[C@H](Cn3c(=O)[nH]c4ccccc4c3=O)CC2)CC1 [Example 34],0.3 to 30
11,COc1ccc2c(c1)c(=O)n(C[C@H]1CC[C@H](C(=O)Nc3ccc(-c4ncco4)cc3)CC1)c(=O)n2C [Example 189],0.3 to 30
12,CCOc1ccc2c(c1)c(=O)n(C[C@H]1CC[C@H](C(=O)N3CCN(C(C)=O)CC3)CC1)c(=O)n2C [Example 200],0.3 to 30
13,COCCC(=O)N1CCN(C(=O)[C@H]2CC[C@H](Cn3c(=O)c4cc(OC)ccc4n(C)c3=O)CC2)CC1 [Example 137],0.3 to 30
14,COc1ccc2c(c1)c(=O)n(C[C@H]1CC[C@H](C(=O)N3CCN(c4nccs4)CC3)CC1)c(=O)n2C [Example 121],0.3 to 30
15,COc1ccc2c(c1)c(=O)n(C[C@H]1CC[C@H](C(=O)N3CCN(C(=O)C4CC4)C[C@H]3C)CC1)c(=O)n2C [Example 138],0.3 to 30
16,COCC(=O)N1CCN(C(=O)[C@H]2CC[C@H](Cn3c(=O)c4cc(OC)ccc4n(C)c3=O)CC2)C[C@@H]1C [Example 149],0.3 to 30
17,COC(=O)N1CCN(C(=O)[C@H]2CC[C@H](Cn3c(=O)n(C)c4ccc(OC)cc43)CC2)CC1 [Example 182],0.3 to 30
18,COc1ccc2c(c1)c(=O)n(C[C@H]1CC[C@H](C(=O)Nc3ccc4nc(C)oc4c3)CC1)c(=O)n2C [Example 194],0.3 to 30
19,CCOC(=O)N1CCN(C(=O)[C@H]2CC[C@H](Cn3c(=O)c4cc(OC)ccc4n(C)c3=O)CC2)CC1 [Example 176],0.3 to 30

row,Structure (SMILES),IC50 [µM]
1,CC(=O)N1CCN(C(=O)[C@H]2CC[C@H](Cn3c(=O)[nH]c4ccccc4c3=O)CC2)CC1 [Example 33],0.3 to 30
2,COc1ccc2c(c1)c(=O)n(C[C@H]1CC[C@H](C(=O)N3CCN(C(=O)C(C)OC)CC3)CC1)c(=O)n2C (stereo partly drawn) [Example 142],0.3 to 30
3,CC(=O)N1CCN(C(=O)[C@H]2CC[C@H](Cn3c(=O)n(C)c4ccc(C(F)(F)F)cc43)CC2)CC1 [Example 202],0.3 to 30
4,CC(C)N1CCN(C(=O)[C@H]2CC[C@H](Cn3c(=O)[nH]c4ccc(Cl)cc4c3=O)CC2)CC1 [Example 43],0.3 to 30
5,CC(c1ccccc1)N1CCN(C(=O)C2CCC(Cn3c(=O)[nH]c4ccccc4c3=O)CC2)CC1 (stereo not drawn) [Example 50],0.3 to 30
6,CN1CCN(C(=O)[C@H]2CC[C@H](Cn3c(=O)n(C)c4ccc(C(F)(F)F)cc43)CC2)CC1=O [Example 170],0.3 to 30
7,COc1ccc2[nH]c(=O)n(C[C@H]3CC[C@H](C(=O)N4CCN(C(=O)c5ccno5)CC4)CC3)c(=O)c2c1 [Example 102],0.3 to 30
8,COc1ccc2c(c1)n(C[C@H]1CC[C@H](C(=O)N3CCN(C(=O)c4nccn4C)CC3)CC1)c(=O)n2C [Example 211],0.3 to 30
9,O=C(C1CCC(Cn2c(=O)[nH]c3ccccc3c2=O)CC1)N1CCOCC1 (stereo not drawn) [Example 22],0.3 to 30
10,COc1ccc2c(c1)c(=O)n(C[C@H]1CC[C@H](C(=O)N3CCN(C(=O)OCC(C)C)CC3)CC1)c(=O)n2C [Example 125],0.3 to 30
11,O=C(CCC1CCCC1)N1CCN(C(=O)[C@H]2CC[C@H](Cn3c(=O)[nH]c4ccccc4c3=O)CC2)CC1 [Example 32],0.3 to 30
12,"CC(=O)N1CCN(C(=O)[C@H]2CC[C@H](CN3C(=O)Cc4ccccc4C3=O)CC2)CC1 [Example 12, 2-[trans-4-(4-Acetyl-piperazine-1-carbonyl)-cyclohexylmethyl]-4H-isoquinoline-1,3-dione]",0.3 to 30
13,COc1ccccc1NC(=O)[C@H]1CC[C@H](CN2C(=O)Cc3ccccc3N(C)C2=O)CC1 [Example 119],0.3 to 30
14,COc1ccc2[nH]c(=O)n(C[C@H]3CC[C@H](C(=O)N4CCN(C(=O)C5CC5(F)F)CC4)CC3)c(=O)c2c1 (stereo partly drawn) [Example 97],0.3 to 30
15,Cn1c(=O)n(C[C@H]2CC[C@H](C(=O)N3CCOCC3)CC2)c2cc(Cl)ccc21 [Example 181],0.3 to 30
16,Cn1c(=O)n(C[C@H]2CC[C@H](C(=O)N3CCOCC3)CC2)c2c(Cl)cccc21 [Example 164],0.3 to 30
17,CCOc1ccc2c(c1)c(=O)n(C[C@H]1CC[C@H](C(=O)N3CCN(C(=O)c4cncn4C)CC3)CC1)c(=O)n2C [Example 206],0.3 to 30
18,COc1ccc2c(c1)c(=O)n(C[C@H]1CC[C@H](C(=O)N3CCN(C(C)=O)CC3)CC1)c(=O)n2C(F)F [Example 179],0.3 to 30

# More lines, now with the values ahead:
row,IC50 [µM],Structure (SMILES)
1,0.3 to 30,COc1ccc2c(c1)c(=O)n(C[C@H]1CC[C@H](C(=O)Nc3ccc4ncccc4c3)CC1)c(=O)n2C [Example 187]
2,0.3 to 30,COc1ccc2c(c1)c(=O)n(C[C@H]1CC[C@H](C(=O)Nc3cccnc3)CC1)c(=O)n2C [Example 153]
3,0.3 to 30,COc1cccc(CN2CCN(C(=O)[C@H]3CC[C@H](Cn4c(=O)[nH]c5ccccc5c4=O)CC3)CC2)c1 [Example 39]
4,0.3 to 30,COc1ccc2c(c1)c(=O)n(C[C@H]1CC[C@H](C(=O)Nc3ccc(F)nc3)CC1)c(=O)n2C [Example 173]
5,0.3 to 30,COc1ccc2c(c1)n(C[C@H]1CC[C@H](C(=O)N3CCN(C(=O)c4cc(C)nn4C)CC3)CC1)c(=O)n2C [Example 210]
6,0.3 to 30,O=C(C1CC1)N1CCN(C(=O)[C@H]2CC[C@H](Cn3c(=O)c4ccccc4n(C(F)F)c3=O)CC2)CC1 [Example 83]
7,0.3 to 30,O=C(C1CC1)N1CCN(C(=O)[C@H]2CC[C@H](Cn3c(=O)[nH]c4ccccc43)CC2)CC1 [Example 74]
8,0.3 to 30,COc1ccc2[nH]c(=O)n(C[C@H]3CC[C@H](C(=O)Nc4ccc5oc(C)nc5c4)CC3)c(=O)c2c1 [Example 114]
9,0.3 to 30,O=C(c1ccno1)N1CCN(C(=O)[C@H]2CC[C@H](Cn3c(=O)[nH]c4ccccc4c3=O)CC2)CC1 [Example 36]
10,0.3 to 30,O=C(C1CC1)N1CCN(C(=O)[C@H]2CC[C@H](CN3Cc4cc(Cl)ccc4NC3=O)CC2)CC1 [Example 85]
11,0.3 to 30,"O=C(C1CC1)N1CCN(C(=O)[C@H]2CC[C@H](Cn3c(=O)[nH]c4ccc(Cl)cc43)CC2)CC1 [Example 11, 6-Chloro-1-[trans-4-(4-cyclopropanecarbonyl-piperazine-1-carbonyl)cyclohexylmethyl]-1,3-dihydro-benzoimidazol-2-one]"
12,0.3 to 30,COc1ccc2c(c1)c(=O)n(C[C@H]1CC[C@H](C(=O)N3CCN(C(=O)C4CCCC4)CC3)CC1)c(=O)n2C [Example 76]
13,0.3 to 30,O=C(C1CC1)N1CCN(C(=O)[C@H]2CC[C@H](Cn3c(=O)[nH]c4cc(Cl)ccc43)CC2)CC1 [Example 111]
14,0.3 to 30,COc1ccc2[nH]c(=O)n(C[C@H]3CC[C@H](C(=O)N4CCOCC4)CC3)c(=O)c2c1 [Example 89]
15,0.3 to 30,COc1ccc2c(c1)c(=O)n(C[C@H]1CC[C@H](C(=O)Nc3ccnc(OC)c3)CC1)c(=O)n2C [Example 177]
16,0.3 to 30,O=C(C1CC1)N1CCN(C(=O)[C@H]2CC[C@H](Cn3c(=O)c4ccccc4n(CC4CC4)c3=O)CC2)CC1 [Example 73]
17,0.3 to 30,COCC(=O)N1CCN(C(=O)[C@H]2CC[C@H](CN3Cc4ccccc4N(C)C3=O)CC2)CC1 [Example 69]
18,0.3 to 30,Cn1c(=O)n(C[C@H]2CC[C@H](C(=O)N3CCN(C(=O)C4CCCO4)CC3)CC2)c(=O)c2ccccc21 (stereo partly drawn) [Example 81]
19,0.3 to 30,O=C(C1CC1)N1CCN(C(=O)[C@H]2CC[C@H](Cn3c(=O)[nH]c4ccc(Cl)cc4c3=O)CC2)CC1 [Example 63]
20,0.3 to 30,O=C1Nc2ccccc2CN1C[C@H]1CC[C@H](C(=O)N2CCN(c3ccccc3)CC2)CC1 [Example 45]
21,0.3 to 30,COc1ccc2c(c1)c(=O)n(C[C@H]1CC[C@H](C(=O)Nc3ccncc3)CC1)c(=O)n2C [Example 165]
22,0.3 to 30,COc1ccc2c(c1)c(=O)n(C[C@H]1CC[C@H](C(=O)N3CCN(C(=O)C4CC4)[C@@H](C)C3)CC1)c(=O)n2C [Example 156]
23,0.3 to 30,COc1ccc2[nH]c(=O)n(C[C@H]3CC[C@H](C(=O)N4CCN(C(=O)C5CC5)CC4)CC3)c2c1 [Example 134]
